Laboratory results reported in publication PMC11850817 (Scientific Reports, 2025).

Tests used:
ALK = ALK (Homo sapiens, UniProt Q9UM73); experiment: Radiometric kinase assay; format: biochemical; settings: read-out: Kinase inhibition (%) ALK
MAPK1 (ERK2) = MAPK1 (ERK2) (Homo sapiens, UniProt P28482); experiment: Radiometric kinase assay; format: biochemical; settings: read-out: Kinase inhibition (%) MAPK1 (ERK2)
ROS1 = ROS1 (Homo sapiens, UniProt P08922); experiment: Radiometric kinase assay; format: biochemical; settings: read-out: Kinase inhibition (%) ROS1
Chain of ROS1 (P08922 28-2347): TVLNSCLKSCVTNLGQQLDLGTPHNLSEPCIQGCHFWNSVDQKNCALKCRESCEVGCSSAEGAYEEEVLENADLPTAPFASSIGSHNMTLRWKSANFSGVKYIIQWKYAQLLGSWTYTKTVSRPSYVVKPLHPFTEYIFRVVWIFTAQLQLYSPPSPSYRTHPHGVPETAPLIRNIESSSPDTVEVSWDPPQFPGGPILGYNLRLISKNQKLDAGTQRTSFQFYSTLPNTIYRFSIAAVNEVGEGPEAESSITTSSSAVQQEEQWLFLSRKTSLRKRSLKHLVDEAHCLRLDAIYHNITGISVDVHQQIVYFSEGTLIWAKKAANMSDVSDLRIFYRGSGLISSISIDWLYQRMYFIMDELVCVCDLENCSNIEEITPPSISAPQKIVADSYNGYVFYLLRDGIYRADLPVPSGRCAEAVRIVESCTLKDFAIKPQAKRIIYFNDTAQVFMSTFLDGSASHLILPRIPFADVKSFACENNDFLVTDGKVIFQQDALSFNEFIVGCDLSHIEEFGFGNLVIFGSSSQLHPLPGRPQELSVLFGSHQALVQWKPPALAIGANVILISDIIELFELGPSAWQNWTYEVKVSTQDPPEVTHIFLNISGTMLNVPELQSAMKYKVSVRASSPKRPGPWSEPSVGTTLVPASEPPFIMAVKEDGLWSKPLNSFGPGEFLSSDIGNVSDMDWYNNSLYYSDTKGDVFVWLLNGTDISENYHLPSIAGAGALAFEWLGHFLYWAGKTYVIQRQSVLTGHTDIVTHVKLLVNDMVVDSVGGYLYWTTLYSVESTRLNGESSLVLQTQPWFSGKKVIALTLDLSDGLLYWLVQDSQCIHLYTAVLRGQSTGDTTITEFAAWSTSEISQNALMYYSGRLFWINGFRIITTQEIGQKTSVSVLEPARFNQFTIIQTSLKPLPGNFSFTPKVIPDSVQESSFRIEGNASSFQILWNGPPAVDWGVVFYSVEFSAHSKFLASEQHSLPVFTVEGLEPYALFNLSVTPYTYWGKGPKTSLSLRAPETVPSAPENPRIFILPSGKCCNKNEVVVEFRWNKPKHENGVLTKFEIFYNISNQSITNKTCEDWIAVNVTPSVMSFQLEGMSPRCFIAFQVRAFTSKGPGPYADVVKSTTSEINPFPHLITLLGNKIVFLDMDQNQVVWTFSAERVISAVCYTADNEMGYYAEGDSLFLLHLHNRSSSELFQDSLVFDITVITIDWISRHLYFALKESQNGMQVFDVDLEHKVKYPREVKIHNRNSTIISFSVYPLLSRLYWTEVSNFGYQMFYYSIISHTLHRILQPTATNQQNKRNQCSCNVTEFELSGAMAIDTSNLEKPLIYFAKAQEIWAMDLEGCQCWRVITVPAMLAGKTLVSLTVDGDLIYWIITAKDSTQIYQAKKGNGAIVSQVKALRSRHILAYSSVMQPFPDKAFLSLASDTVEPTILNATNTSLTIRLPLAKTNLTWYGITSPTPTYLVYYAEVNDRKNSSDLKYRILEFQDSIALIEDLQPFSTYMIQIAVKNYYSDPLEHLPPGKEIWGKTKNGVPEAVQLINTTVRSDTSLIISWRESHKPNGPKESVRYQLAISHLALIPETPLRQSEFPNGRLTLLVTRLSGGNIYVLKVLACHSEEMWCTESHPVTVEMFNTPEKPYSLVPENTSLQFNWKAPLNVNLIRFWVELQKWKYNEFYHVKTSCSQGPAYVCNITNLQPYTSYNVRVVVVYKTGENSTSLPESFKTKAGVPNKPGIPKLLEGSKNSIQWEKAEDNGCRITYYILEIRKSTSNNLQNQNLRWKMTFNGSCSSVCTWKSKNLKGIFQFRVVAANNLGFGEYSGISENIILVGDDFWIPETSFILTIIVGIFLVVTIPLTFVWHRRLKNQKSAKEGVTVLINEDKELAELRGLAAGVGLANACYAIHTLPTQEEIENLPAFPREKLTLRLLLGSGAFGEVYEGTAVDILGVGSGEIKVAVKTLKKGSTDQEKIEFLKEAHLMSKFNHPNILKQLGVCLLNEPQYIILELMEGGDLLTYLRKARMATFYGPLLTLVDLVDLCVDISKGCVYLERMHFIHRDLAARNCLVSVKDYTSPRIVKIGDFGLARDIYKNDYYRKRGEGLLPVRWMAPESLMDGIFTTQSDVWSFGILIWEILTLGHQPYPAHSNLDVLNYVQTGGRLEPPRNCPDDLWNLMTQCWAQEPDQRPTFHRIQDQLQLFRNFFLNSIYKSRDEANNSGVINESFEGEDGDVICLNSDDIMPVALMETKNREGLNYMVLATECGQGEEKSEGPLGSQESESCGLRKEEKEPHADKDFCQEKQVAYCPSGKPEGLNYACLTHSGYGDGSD

CHEK1 = CHEK1 (Homo sapiens, UniProt O14757); experiment: Radiometric kinase assay; format: biochemical; settings: read-out: Kinase inhibition (%) CHEK1
PDGFRB (PDGFRβ) = PDGFRB (PDGFRβ) (Homo sapiens, UniProt P09619); experiment: Radiometric kinase assay; format: biochemical; settings: read-out: Kinase inhibition (%) PDGFRB (PDGFRβ)
MET = MET (Homo sapiens, UniProt P08581); experiment: Radiometric kinase assay; format: biochemical; settings: read-out: Kinase inhibition (%) MET
HT-29 = experiment: MTT antiproliferative assay, HT-29; format: cell-based, human; settings: Homo sapiens, HT-29, 72 h, read-out: IC50 HT-29
CDK6/cyclinD3 = CDK6/cyclinD3 (Homo sapiens, UniProt Q00534); experiment: Radiometric kinase assay; format: biochemical; settings: read-out: Kinase inhibition (%) CDK6/cyclinD3
Chain of CDK6/cyclinD3 (Q00534 whole entry): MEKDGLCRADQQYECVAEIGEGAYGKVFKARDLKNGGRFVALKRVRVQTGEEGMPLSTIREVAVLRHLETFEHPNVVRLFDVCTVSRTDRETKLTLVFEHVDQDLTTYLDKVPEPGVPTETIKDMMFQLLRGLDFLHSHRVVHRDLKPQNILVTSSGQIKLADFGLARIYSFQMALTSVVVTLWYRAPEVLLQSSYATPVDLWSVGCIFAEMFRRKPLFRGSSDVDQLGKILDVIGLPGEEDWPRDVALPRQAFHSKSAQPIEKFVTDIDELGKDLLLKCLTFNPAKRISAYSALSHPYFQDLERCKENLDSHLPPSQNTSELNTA
Chain of CDK6/cyclinD3 (P30281 whole entry partner): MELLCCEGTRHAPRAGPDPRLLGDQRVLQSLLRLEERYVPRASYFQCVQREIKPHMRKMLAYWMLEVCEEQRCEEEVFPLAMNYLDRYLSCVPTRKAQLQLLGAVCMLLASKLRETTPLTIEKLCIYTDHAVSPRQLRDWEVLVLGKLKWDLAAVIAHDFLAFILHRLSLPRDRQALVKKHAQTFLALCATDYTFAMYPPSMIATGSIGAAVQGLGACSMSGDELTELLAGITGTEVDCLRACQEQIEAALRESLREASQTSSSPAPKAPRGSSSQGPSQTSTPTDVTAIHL

BRAF = BRAF (Homo sapiens, UniProt P15056); experiment: Radiometric kinase assay; format: biochemical; settings: read-out: Kinase inhibition (%) BRAF
Chain of BRAF (P15056 whole entry): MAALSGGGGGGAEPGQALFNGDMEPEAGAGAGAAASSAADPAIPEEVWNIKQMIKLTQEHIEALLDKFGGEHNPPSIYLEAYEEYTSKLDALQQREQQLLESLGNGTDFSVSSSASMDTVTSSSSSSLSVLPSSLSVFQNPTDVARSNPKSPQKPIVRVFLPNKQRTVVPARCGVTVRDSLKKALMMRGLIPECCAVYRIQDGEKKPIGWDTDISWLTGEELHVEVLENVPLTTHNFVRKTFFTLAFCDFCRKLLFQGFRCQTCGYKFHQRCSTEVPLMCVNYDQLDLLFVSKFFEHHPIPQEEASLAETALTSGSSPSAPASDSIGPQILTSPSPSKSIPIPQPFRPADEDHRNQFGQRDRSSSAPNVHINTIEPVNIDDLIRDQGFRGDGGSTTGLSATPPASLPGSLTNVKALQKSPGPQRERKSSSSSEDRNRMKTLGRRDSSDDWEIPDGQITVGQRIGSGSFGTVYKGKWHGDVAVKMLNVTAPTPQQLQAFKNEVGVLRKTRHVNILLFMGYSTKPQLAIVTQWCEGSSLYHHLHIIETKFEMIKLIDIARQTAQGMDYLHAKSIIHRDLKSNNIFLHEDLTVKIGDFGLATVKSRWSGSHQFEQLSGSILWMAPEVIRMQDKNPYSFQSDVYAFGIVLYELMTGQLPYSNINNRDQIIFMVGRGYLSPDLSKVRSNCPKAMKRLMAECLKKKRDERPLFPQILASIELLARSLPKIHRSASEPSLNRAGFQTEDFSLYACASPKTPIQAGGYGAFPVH

AsPC-1 = experiment: MTT antiproliferative assay, AsPC-1; format: cell-based, human; settings: Homo sapiens, ASPC1, 72 h, read-out: IC50 AsPC-1
AKT1 = AKT1 (Homo sapiens, UniProt P31749); experiment: Radiometric kinase assay; format: biochemical; settings: read-out: Kinase inhibition (%) AKT1
NTRK1 (TrkA) = NTRK1 (TrkA) (Homo sapiens, UniProt P04629); experiment: Radiometric kinase assay; format: biochemical; settings: read-out: Kinase inhibition (%) NTRK1 (TrkA)
Chain of NTRK1 (TrkA) (P04629 33-796): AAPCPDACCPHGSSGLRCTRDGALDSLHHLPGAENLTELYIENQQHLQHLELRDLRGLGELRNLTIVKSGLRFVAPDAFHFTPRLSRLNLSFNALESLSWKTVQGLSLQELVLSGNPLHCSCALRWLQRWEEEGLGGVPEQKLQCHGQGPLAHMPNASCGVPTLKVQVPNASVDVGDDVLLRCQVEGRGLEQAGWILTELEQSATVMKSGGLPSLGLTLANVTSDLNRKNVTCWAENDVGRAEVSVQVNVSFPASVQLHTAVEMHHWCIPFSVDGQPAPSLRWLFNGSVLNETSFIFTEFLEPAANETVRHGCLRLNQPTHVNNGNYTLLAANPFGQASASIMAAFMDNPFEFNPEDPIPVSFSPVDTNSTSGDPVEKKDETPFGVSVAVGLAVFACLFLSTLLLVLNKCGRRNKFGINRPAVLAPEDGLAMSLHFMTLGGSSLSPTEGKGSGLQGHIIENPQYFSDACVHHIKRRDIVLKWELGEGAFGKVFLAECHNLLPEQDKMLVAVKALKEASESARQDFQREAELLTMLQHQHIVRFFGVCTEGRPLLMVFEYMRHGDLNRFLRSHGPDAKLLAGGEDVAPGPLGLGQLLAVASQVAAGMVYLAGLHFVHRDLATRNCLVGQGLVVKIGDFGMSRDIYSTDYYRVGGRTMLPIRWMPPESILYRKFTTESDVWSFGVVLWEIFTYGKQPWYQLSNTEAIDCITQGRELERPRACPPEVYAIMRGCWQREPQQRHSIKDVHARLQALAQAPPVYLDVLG

FLT4 (VEGFR3) = FLT4 (VEGFR3) (Homo sapiens, UniProt P35916); experiment: Radiometric kinase assay; format: biochemical; settings: read-out: Kinase inhibition (%) FLT4 (VEGFR3)
EGFR = EGFR (Homo sapiens, UniProt P00533); experiment: Radiometric kinase assay; format: biochemical; settings: read-out: Kinase inhibition (%) EGFR
PDGFRA (PDGFRα) = PDGFRA (PDGFRα) (Homo sapiens, UniProt P16234); experiment: Radiometric kinase assay; format: biochemical; settings: read-out: Kinase inhibition (%) PDGFRA (PDGFRα)
NTRK2 (TrkB) = NTRK2 (TrkB) (Homo sapiens, UniProt Q16620); experiment: Radiometric kinase assay; format: biochemical; settings: read-out: Kinase inhibition (%) NTRK2 (TrkB)
[1] = system: EBC-1, AsPC-1, Mia-Paca-2, HT-29, MCF-7 cancer cells; experiment: MTT antiproliferative assay, cancer cell lines summarised; format: cell-based, human; settings: Homo sapiens, read-out: IC50 range against tested cell lines
MAP2K1 = MAP2K1 (Homo sapiens, UniProt Q02750); experiment: Radiometric kinase assay; format: biochemical; settings: read-out: Kinase inhibition (%) MAP2K1
PIK3CA = PIK3CA (Homo sapiens, UniProt P42336); experiment: Radiometric kinase assay; format: biochemical; settings: read-out: Kinase inhibition (%) PIK3CA
AXL = target: T1, AXL (Homo sapiens, UniProt P30530); experiment: Radiometric kinase assay; format: biochemical; settings: read-out: Kinase inhibition (%) AXL
T1 sequence (P30530 26-894): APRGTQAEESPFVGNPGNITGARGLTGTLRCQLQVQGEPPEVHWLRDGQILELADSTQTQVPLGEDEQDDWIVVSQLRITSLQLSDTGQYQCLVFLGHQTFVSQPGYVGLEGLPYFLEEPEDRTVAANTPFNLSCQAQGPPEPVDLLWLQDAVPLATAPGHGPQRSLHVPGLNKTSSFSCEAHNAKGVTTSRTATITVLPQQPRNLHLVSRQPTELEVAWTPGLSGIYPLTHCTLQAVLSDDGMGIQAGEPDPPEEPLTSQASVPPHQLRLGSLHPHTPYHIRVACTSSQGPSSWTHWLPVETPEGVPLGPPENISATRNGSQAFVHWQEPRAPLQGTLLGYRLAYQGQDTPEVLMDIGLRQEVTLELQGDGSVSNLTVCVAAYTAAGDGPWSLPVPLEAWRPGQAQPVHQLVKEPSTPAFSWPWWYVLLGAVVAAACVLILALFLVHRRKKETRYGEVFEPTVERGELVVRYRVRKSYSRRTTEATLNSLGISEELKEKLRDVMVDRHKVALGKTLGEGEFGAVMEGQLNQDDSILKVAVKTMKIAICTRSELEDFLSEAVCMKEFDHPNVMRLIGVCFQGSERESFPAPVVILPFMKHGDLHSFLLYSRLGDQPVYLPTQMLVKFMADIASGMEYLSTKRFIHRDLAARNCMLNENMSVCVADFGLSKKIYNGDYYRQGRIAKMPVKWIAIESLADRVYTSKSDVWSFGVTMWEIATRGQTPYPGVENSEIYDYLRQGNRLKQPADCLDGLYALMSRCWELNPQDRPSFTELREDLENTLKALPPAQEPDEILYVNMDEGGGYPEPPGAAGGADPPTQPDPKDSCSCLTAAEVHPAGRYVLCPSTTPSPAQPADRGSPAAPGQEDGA

NTRK3 (TrkC) = NTRK3 (TrkC) (Homo sapiens, UniProt Q16288); experiment: Radiometric kinase assay; format: biochemical; settings: read-out: Kinase inhibition (%) NTRK3 (TrkC)
ERBB2 (Her-2) = ERBB2 (Her-2) (Homo sapiens, UniProt P04626); experiment: Radiometric kinase assay; format: biochemical; settings: read-out: Kinase inhibition (%) ERBB2 (Her-2)
WEE1 = WEE1 (Homo sapiens, UniProt P30291); experiment: Radiometric kinase assay; format: biochemical; settings: read-out: Kinase inhibition (%) WEE1
AURKA = AURKA (Homo sapiens, UniProt O14965); experiment: Radiometric kinase assay; format: biochemical; settings: read-out: Kinase inhibition (%) AURKA
AKT2 = AKT2 (Homo sapiens, UniProt P31751); experiment: Radiometric kinase assay; format: biochemical; settings: read-out: Kinase inhibition (%) AKT2
Chain of AKT2 (P31751 whole entry): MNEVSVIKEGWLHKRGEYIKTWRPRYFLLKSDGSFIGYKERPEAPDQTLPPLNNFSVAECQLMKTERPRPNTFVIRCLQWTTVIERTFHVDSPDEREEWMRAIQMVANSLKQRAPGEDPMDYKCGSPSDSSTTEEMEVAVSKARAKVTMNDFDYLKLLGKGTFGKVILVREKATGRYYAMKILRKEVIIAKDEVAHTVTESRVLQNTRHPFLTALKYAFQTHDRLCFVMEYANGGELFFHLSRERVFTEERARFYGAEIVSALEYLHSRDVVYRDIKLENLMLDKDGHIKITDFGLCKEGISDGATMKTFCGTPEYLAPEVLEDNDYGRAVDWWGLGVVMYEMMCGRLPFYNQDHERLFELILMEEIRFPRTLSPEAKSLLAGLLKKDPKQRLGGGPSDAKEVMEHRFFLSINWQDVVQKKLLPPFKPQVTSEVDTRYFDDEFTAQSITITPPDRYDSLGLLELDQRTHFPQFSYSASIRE

`O=C1C=C(Nc2ccc(OCc3cn(Cc4ccc(Cl)c(Cl)c4)nn3)cc2)C(=O)c2ccccc21` [Compound 4e, 2-((4-((1-(3,4-Dichlorobenzyl)−1H-1,2,3-triazol-4-yl)methoxy)phenyl)amino) naphthalene-1,4-dione] showed an inhibition at 10 µM (ALK) of 15%, an inhibition at 10 µM (MAPK1 (ERK2)) of 6% and an inhibition at 10 µM (ROS1) of -2%. The inhibition at 10 µM (CHEK1) was -12%, the inhibition at 10 µM (PDGFRB (PDGFRβ)) was 14% and the inhibition at 10 µM (MET) was -14%. For the same compound, the IC50 (HT-29) was 600 ± 200 nM, the inhibition at 10 µM (CDK6/cyclinD3) was 3% and the inhibition at 10 µM (BRAF) was -7%. It also gave an IC50 (AsPC-1) of 1100 ± 200 nM, an inhibition at 10 µM (AKT1) of 15% and an inhibition at 10 µM (NTRK1 (TrkA)) of 2%. The inhibition at 10 µM (FLT4 (VEGFR3)) was 30%, the inhibition at 10 µM (EGFR) was -3% and the inhibition at 10 µM (PDGFRA (PDGFRα)) was 43%. For the same compound, the inhibition at 10 µM (NTRK2 (TrkB)) was 6%, the IC50 [1] was 300 to 7100 nM and the inhibition at 10 µM (MAP2K1) was 4%. It also gave an inhibition at 10 µM (PIK3CA) of 3%, an inhibition at 10 µM (AXL) of 5% and an inhibition at 10 µM (NTRK3 (TrkC)) of 12%. The inhibition at 10 µM (ERBB2 (Her-2)) was 2%, the inhibition at 10 µM (WEE1) was -4% and the inhibition at 10 µM (AURKA) was 5%. The inhibition at 10 µM (AKT2) was -7%.
